Measurements: patent publication US20220372014A1, “NEUROPROTECTIVE COMPOUNDS AND METHODS OF USE THEREOF” (The Johns Hopkins University, priority 2019, published 2022)

Tests used:
[1] = tested on: HeLa cells or neuronal cells; test: Cell death assay of Example 3 (MNNG, alamarBlue; protection against parthanatos, Table 4); assay type: cell-based; conditions: 1 μM test compound; for (%) inhibition of cell death: MNNG-induced cell death, alamarBlue
In short: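 HeLa or neuronal cells (1×10^4/well) were pretreated 1 h at 37° C with 1 μM compound, exposed to MNNG for 15 min, washed, then re-incubated 18 h with 1 μM compound. Viability was read by alamarBlue fluorescence (ex 560/em 590 nm). Cell death was expressed relative to control wells.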

MIF = target: T1, MIF (Homo sapiens, UniProt P14174); test: Nuclease assay of Example 3 (MIF inhibitory activity, Table 4); assay type: biochemical; design: (%) inhibition of MIF nuclease activity: concentration or dose not given beside the values; conditions: for (%) inhibition of MIF nuclease activity: nuclease assay of Example 3
T1 sequence (P14174 1-115): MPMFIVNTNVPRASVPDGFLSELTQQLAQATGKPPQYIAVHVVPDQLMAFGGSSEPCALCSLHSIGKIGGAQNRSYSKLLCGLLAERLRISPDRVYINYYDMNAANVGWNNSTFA
In short: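 Human genomic DNA (200 ng), pcDNA (200 ng) or PS^30-type substrates (1 μM) were incubated with MIF (0.25-8 μM final) in 10 mM Tris-HCl pH 7.0, 10 mM MgCl2, 1 mM DTT at 37 °C for 1 h (pcDNA, small substrates) or 4 h (genomic DNA). Cleavage was assessed by agarose or PAGE electrophoresis with EtBr staining and chemiluminescent detection of biotin-labelled DNA.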

Row | Compound | MIF nuclease activity (MIF) | (%) inhibition of MIF nuclease activity (MIF) [%] | protection against parthanatos (cell death) [1] | (%) inhibition of cell death [1] [%] | (%) inhibition of cell death ([1]; 1 µM) [%]
1 | COc1ccc(CC[C@H]2OC(=O)[C@@H]3CN(C(=O)OCC4c5ccccc5-c5ccccc54)CCN3C(=O)C(=O)C(C)(C)COC(=O)C=CCCN(C)C(=O)[C@@H]3CCCN3C(=O)[C@H](COC(C)(C)C)N(C)C(=O)C(c3ccccc3)NC(=O)[C@H](C)N(C)C(=O)COc3cccc2c3)cc1OC (stereo partly drawn) [compound 127] | – | 5.0 | – | 46.4 | –
2 | C=CC(=O)OCC(C)(C)C(=O)C(=O)N1CCCC[C@H]1C(=O)O[C@H](CCc1ccc(OC)c(OC)c1)c1cncc(OCC(=O)N(C)[C@@H](C)C(=O)NC(C(=O)N(C)[C@@H](COC(C)(C)C)C(=O)N2CCC[C@H]2C(=O)N(C)CC/C=C\CCO)c2ccccc2)c1 (stereo partly drawn) [compound 129] | – | 29.5 | – | 43.0 | –
3 | COc1ccc(CC[C@H]2OC(=O)[C@@H]3CCCCN3C(=O)C(=O)C(C)(C)COC(=O)C=CCCN(C)C(=O)[C@@H]3CCCN3C(=O)[C@H](COC(C)(C)C)N(C)C(=O)C(c3ccccc3)N(C)C(=O)[C@H](C)NC(=O)COc3cccc2c3)cc1OC (stereo partly drawn) [compound 137] | – | 9.4 | – | 44.5 | –
4 | COc1ccc(CC[C@H]2OC(=O)[C@@H]3CCCCN3C(=O)C(=O)C(C)(C)COC(=O)C=CCCN(C)C(=O)[C@@H]3CCCN3C(=O)[C@H](COC(C)(C)C)N(C)C(=O)[C@H](Cc3ccccc3)N(C)C(=O)[C@H](C)NC(=O)COc3cccc2c3)cc1OC [compound 138] | – | −4.8 | – | 47.0 | –
5 | COc1ccc(CC[C@H]2OC(=O)[C@@H]3CCCCN3C(=O)C(=O)C(C)(C)COC(=O)C=CCCN(C)C(=O)[C@@H]3CCCN3C(=O)[C@H](COC(C)(C)C)N(C)C(=O)[C@H](COC(C)(C)C)NC(=O)[C@H](C)N(C)C(=O)COc3cccc2c3)cc1OC [compound 140] | – | 0.0 | – | 51.0 | –
6 | COc1ccc(CC[C@H]2OC(=O)[C@@H]3CCCCN3C(=O)C(=O)C(C)(C)COC(=O)C=CCCN(C)C(=O)[C@@H]3CCCN3C(=O)[C@H](COC(C)(C)C)N(C)C(=O)[C@H](Cc3ccc(O)cc3)N(C)C(=O)[C@H](C)NC(=O)COc3cccc2c3)cc1OC [compound 141] | – | 9.2 | – | 46.8 | –
7 | COc1ccc(CC[C@H]2OC(=O)[C@@H]3CCCCN3C(=O)C(=O)C(C)(C)COC(=O)C=CCCN(C)C(=O)[C@@H]3CCCN3C(=O)[C@H](COC(C)(C)C)N(C)C(=O)C(Cc3ccc(O)cc3)NC(=O)[C@H](C)NC(=O)COc3cccc2c3)cc1OC (stereo partly drawn) [compound 142] | – | −4.7 | – | 42.5 | –
8 | COc1ccc(CC[C@H]2OC(=O)[C@@H]3CCCCN3C(=O)C(=O)C(C)(C)COC(=O)C=CCCN(C)C(=O)[C@@H]3CCCN3C(=O)[C@H](COC(C)(C)C)N(C)C(=O)[C@H](Cc3ccc(C#N)cc3)NC(=O)[C@H](C)NC(=O)COc3cccc2c3)cc1OC [compound 143] | – | −1.1 | – | 46.7 | –
9 | COc1ccc(CC[C@H]2OC(=O)[C@@H]3CCCCN3C(=O)C(=O)C(C)(C)COC(=O)C=CCCN(C)C(=O)[C@@H]3CCCN3C(=O)[C@H](COC(C)(C)C)N(C)C(=O)C(c3ccccc3)NC(=O)[C@H](Cc3ccc(O)cc3)N(C)C(=O)COc3cccc2c3)cc1OC (stereo partly drawn) [compound 148] | – | 12.0 | – | 50.7 | –
10 | COc1ccc(CC[C@H]2OC(=O)[C@@H]3CCCCN3C(=O)C(=O)C(C)(C)COC(=O)C=CCCN(C)C(=O)[C@@H]3CCCN3C(=O)[C@H](COC(C)(C)C)N(C)C(=O)C(c3ccccc3)NC(=O)[C@H](C)N(C)C(=O)COc3cccc2c3)cc1OC (stereo partly drawn) [compound 152] | – | −2.4 | – | – | 43.0

Now from value to molecule, other results behind:

Row | MIF nuclease activity (MIF) | (%) inhibition of MIF nuclease activity (MIF) [%] | Compound | protection against parthanatos (cell death) [1] | (%) inhibition of cell death [1] [%] | (%) inhibition of cell death ([1]; 1 µM) [%]
11 | do not inhibit MIF nuclease activity | −5.1 | COc1ccc(OC)c(OC)c1CC[C@H]1OC(=O)[C@@H]2CCCCN2C(=O)C(=O)C(C)(C)COC(=O)C=CCCN(C)C(=O)[C@@H]2CCCN2C(=O)[C@H](COC(C)(C)C)N(C)C(=O)C(c2ccccc2)NC(=O)[C@H](C)N(C)C(=O)COc2cccc1c2 (stereo partly drawn) [compound 123] | protect against parthanatos | 82.4 | –
12 | – | −2.7 | COc1ccc(CC[C@H]2OC(=O)[C@@H]3CCCCN3C(=O)C(=O)C(C)(C)COC(=O)C=CCCN(C)C(=O)[C@@H]3CCCN3C(=O)[C@H](COC(C)(C)C)N(C)C(=O)C(c3ccccc3)NC(=O)[C@H](C)N(C)C(=O)COc3cccc2c3)c(OC)c1OC (stereo partly drawn) [compound 124] | – | 55.9 | –
13 | do not inhibit MIF nuclease activity | 2.4 | COc1ccc(CC[C@H]2OC(=O)[C@@H]3CCCCN3C(=O)C(=O)C(C)(C)COC(=O)C=CCCN(C)C(=O)[C@@H]3CCCN3C(=O)[C@H](COC(C)(C)C)N(C)C(=O)C(c3ccccc3)NC(=O)[C@H](C)N(C)C(=O)COc3cccc2c3F)cc1OC (stereo partly drawn) [compound 125] | protect against parthanatos | 63.4 | –
14 | – | 6.7 | COc1ccc(CC[C@H]2OC(=O)[C@@H]3CCCCN3C(=O)C(=O)C(C)(C)COC(=O)C=CCCN(C)C(=O)[C@@H]3CCCN3C(=O)[C@H](COC(C)(C)C)N(C)C(=O)C(c3ccccc3)NC(=O)[C@H](C)N(C)C(=O)COc3cncc2c3)cc1OC (stereo partly drawn) [compound 126] | – | 46.8 | –
15 | – | 11.0 | COc1ccc(CC[C@H]2OC(=O)[C@@H]3CNCCN3C(=O)C(=O)C(C)(C)COC(=O)C=CCCN(C)C(=O)[C@@H]3CCCN3C(=O)[C@H](COC(C)(C)C)N(C)C(=O)C(c3ccccc3)NC(=O)[C@H](C)N(C)C(=O)COc3cccc2c3)cc1OC (stereo partly drawn) [compound 128] | – | 47.4 | –
16 | – | 10.7 | COc1ccc(CC[C@H]2OC(=O)[C@@H]3CCCCN3C(=O)C(=O)C(C)(C)COC(=O)C=CCCN(C)C(=O)[C@@H]3CCCN3C(=O)[C@H](COC(C)(C)C)N(C)C(=O)C(c3ccccc3)NC(=O)C(c3ccccc3)N(C)C(=O)COc3cccc2c3)cc1OC (stereo partly drawn) [compound 144] | – | 51.3 | –
17 | – | 6.7 | COc1ccc(CC[C@H]2OC(=O)[C@@H]3CCCCN3C(=O)C(=O)C(C)(C)COC(=O)C=CCCN(C)C(=O)[C@@H]3CCCN3C(=O)[C@H](COC(C)(C)C)N(C)C(=O)C(c3ccccc3)NC(=O)[C@H](Cc3ccccc3)N(C)C(=O)COc3cccc2c3)cc1OC (stereo partly drawn) [compound 145] | – | 46.6 | –
18 | – | −1.1 | COc1ccc(CC[C@H]2OC(=O)[C@@H]3CCCCN3C(=O)C(=O)C(C)(C)COC(=O)C=CCCN(C)C(=O)[C@@H]3CCCN3C(=O)[C@H](COC(C)(C)C)N(C)C(=O)C(c3ccccc3)NC(=O)[C@H](COC(C)(C)C)N(C)C(=O)COc3cccc2c3)cc1OC (stereo partly drawn) [compound 146] | – | 43.9 | –
19 | – | −4.7 | COc1ccc(CC[C@H]2OC(=O)[C@@H]3CCCCN3C(=O)C(=O)C(C)(C)COC(=O)C=CCCN(C)C(=O)[C@@H]3CCCN3C(=O)[C@H](COC(C)(C)C)N(C)C(=O)C(c3ccccc3)NC(=O)[C@H](C(C)CC(C)(C)C)N(C)C(=O)COc3cccc2c3)cc1OC (stereo partly drawn) [compound 147] | – | 46.2 | –
20 | – | −11.8 | C[C@H]1C(=O)NC(c2ccccc2)C(=O)N(C)[C@@H](COC(C)(C)C)C(=O)N2CCC[C@H]2C(=O)N(C)CCC=CC(=O)OCC(C)(C)C(=O)C(=O)N2CCCC[C@H]2C(=O)O[C@H](CCc2ccccc2)c2cccc(c2)OCC(=O)N1C (stereo partly drawn) [compound 149] | – | 51.0 | –
21 | – | 10.7 | COc1cccc(CC[C@H]2OC(=O)[C@@H]3CCCCN3C(=O)C(=O)C(C)(C)COC(=O)C=CCCN(C)C(=O)[C@@H]3CCCN3C(=O)[C@H](COC(C)(C)C)N(C)C(=O)C(c3ccccc3)NC(=O)[C@H](C)N(C)C(=O)COc3cccc2c3)c1 (stereo partly drawn) [compound 150] | – | 50.8 | –
22 | – | 6.8 | COc1ccc(CC[C@H]2OC(=O)[C@@H]3CCCCN3C(=O)C(=O)C(C)(C)COC(=O)C=CCCN(C)C(=O)[C@@H]3CCCN3C(=O)[C@H](COC(C)(C)C)N(C)C(=O)C(c3ccccc3)NC(=O)[C@H](C)N(C)C(=O)COc3cccc2c3)cc1 (stereo partly drawn) [compound 151] | – | 45.7 | –
